Laboratory results as given in patent publication US8105581B2, “Compositions and methods for inducing neuronal differentiation” (The Scripps Research Institute, priority 2005, dated 2012).
Entries after “also recorded” stand apart in the source; their conditions may differ.

What was measured:
Assay type in all cases: cell-based, rat
[1] = test system: HCN cells (adult hippocampal neural progenitor cells); test: Neuronal and astroglial differentiation of HCN cells by TuJ1/GFAP double-immunofluorescence staining; conditions: for Relative activity at ECmax: ECmax relative to Compound A, compound 2 (100) and DMSO (0 or no active, N/A), AP = Anti-proliferation
Protocol: Cell Culture: Neural precursor cells isolated from the hippocampus of adult female Fischer 344 rats^(1) were maintained in N2 supplemented (Invitrogen) DMEM: Ham's F12 (Omega scientific) medium containing 20 ng/mL FGF-2 (PeproTech Inc.) HCN cells were expanded and maintained in an undifferentiated state on a polyornithine/laminin-coated dish in a defined serum-free growth medium (DMEM/F12 supplemented with N2 and 20 ng/ml bFGF) in a homogeneous monolayer. Neuronal and astroglial differentiation was analyzed directly with double-immunofluorescence staining of βIII tubulin (TuJ1) as a neuronal marker and glial fibrillary acidic protein (GFAP) as an astroglial marker. A combinatorial heterocycle library of 50,000 compounds was screened using undifferentiated, early passage HCN cells plated onto polyornithine/lamin-coated 384-well plates at a density of 6,000 cells/well in complete growth medium. After overnight incubation, the medium was exchanged with bFGF-free basal medium, and 5 μM of the compounds (final concentration) were added to each well. After treatment with compound for four days, cells were fixed and stained with βIII tubulin/TUJ1 and GFAP antibodies, the morphology of positively stained cells was analyzed, and the number of cells with the desired phenotypes was counted.
(§1) Immunocytochenzistry: Cells were fixed with 4% paraformaldehyde for 30 min and washed with PBS, and then blocked for 1 hour at room temperature in PBS containing 0.3% Triton X-100 and 5% donkey serum (PBS-B). Samples were incubated in PBS-B containing dilutions (1:1500) of two primary antibodies for 24 hrs at 4° C., washed three times with PBS, and incubated w secondary antibodies conjugated to Cy3 (Jackson ImmunoResearch Laboratories, Inc.) Alexa Fluor 488 (Molecular Probe Inc.). The samples then were treated with 1 μg/mL 4′,6-diamidino-2-phenylindole (DAPI) for 30 min at room temperature, and then washed three times with PBS.
A combinatorial heterocycle library of 50,000 compounds was screened using undifferentiated, early passage HCN cells plated onto polyornithine/lamin-coated 384-well plates at a density of 6,000 cells/well in complete growth medium. After overnight incubation, the medium was exchanged with bFGF-free basal medium, and 5 μM of the compounds (final concentration) were added to each well. After treatment with compound for four days, cells were fixed and stained with βIII tubulin/TUJ1 and GFAP antibodies, the morphology of positively stained cells was analyzed, and the number of cells with the desired phenotypes was counted.

HCN cells [2] = test: Cytotoxic effects on HCN cells
Sox2 = test: Semi-quantitative RT-PCR of marker genes: Sox2; conditions: HCN cells, 10 μM Compound A versus compound-free N2 medium
NeuroD1 and NeuN = test: BrdU labeling with immunocytochemistry to detect NeuroD1 and NeuN; conditions: HCN cells (FIG. 4)
Protocol: as §1
(§2) RA). After 5 hours, the medium was changed and 10 μM of 5-bromo-2′-deoxy-uridine (BrdU) (final concentration) was added to each well. After treatment with BrdU for 2 hours, cells were fixed, washed three times with 01M Tris-buffer, and incubated in 2N HCl at 37° for 30 min. After treatment with 0.1M borate buffer (pH 8.5) for 10 min, cells were washed three times with PBS and treated with blocking buffer (PBS containing 0.3% Triton-X and 5% donkey serum) for 60 min. After overnight incubation with anti-BrdU (1:400) antibody, cells were washed with PBS and incubated with secondary antibody conjugated to Cy3 (1:1000) for 2 hours. After washing with PBS, BrdU-positive cells were counted.

HCN cells [3] = test: BrdU proliferation assay; conditions: HCN cells treated 5 hours in bFGF-free N2 medium; 15, 10, 5 μM Compound A or 1, 0.5, 0.25 μM RA; BrdU 2 hours
Protocol: BrdU proliferation assay: Cells were treated with compounds (Compound A and
as §2

NeuroD1 = test: Semi-quantitative RT-PCR of marker genes: NeuroD1; conditions: HCN cells, 10 μM Compound A versus compound-free N2 medium
HCN cells [4] = test: Astroglial differentiation of HCN cells induced by LIF/BMP2/FBS; conditions: 50 ng/ml LIF, 50 ng/ml BMP2 and 0.5% FBS; compound A 20 μM, RA 5 μM; listed as Compound A
[5] = HCN cells treated with Compound A

Molecule	Relative activity at ECmax [1]	cytotoxicity (HCN cells [2]; over 2 μM in growth factor (bFGF or LIF/BMP2)-free basal medium)	Sox2 (neural progenitor marker) mRNA level (Sox2)	expression of neuron-specific marker genes NeuroD1 and NeuN (NeuroD1 and NeuN)	cell proliferation (BrdU-positive cells) (HCN cells [3])	visible cytotoxic effects (HCN cells [2]; [5])	cells differentiated into neuronal cells (immunostaining with TuJ1 and characteristic neuronal morphology) [1, 5]	neuronal differentiation-inducing activity (screen and sublibrary) ([1]; HCN cells, bFGF-free basal medium, four days)	lineage specificity: GFAP-positive (astroglial) versus neuronal cells after treatment ([1]; four days in N2 media, 10 μM Compound A or 2 μM RA (FIG. 2))	staining for later stage neuronal markers neurofilament-H and Map2(a+b) ([1]; seven days of treatment with 10 μM Compound A)	NeuroD1 (neuronal cell marker) mRNA level (NeuroD1)	inhibition of astroglial differentiation induced by LIF and BMP2 (HCN cells [4])
ethyl 4-(2-phenylthiazol-4-ylamino) benzoate [Compound 1]	10	–	–	–	–	–	–	–	–	–	–	–
CC1=C(/C=C/C(C)=C/C=C/C(C)=C/C(=O)O)C(C)(C)CCC1 [RA, retinoic acid, reference compound]	–	significant cytotoxicity	–	–	–	–	–	–	–	–	–	–
CCOC(=O)c1ccc(N(C)c2csc(-c3ccccc3)n2)cc1 [Compound 2]	100	–	down-regulated	induces expression of neuron-specific marker genes	significantly slowed cell proliferation	without visible cytotoxic effects	more than 90%	highest activity among the analogues tested	GFAP-positive cells were very rarely detected	positive staining	up-regulated	can also inhibit astroglial differentiation; also recorded: can competitively suppress astrogliogenesis by LIF/BMP2/FBS in a dose-dependent manner
